The source of these data is patent publication US20090012087A1, “New Aza-Bicyclohexane Compounds Useful As Inhibitors Of Thrombin” (ASTRAZENECA AB, priority 2007, published 2009).

Structures can show the parent of a compound that is named as a salt.

The target of this assay is T1, Human α-thrombin (Homo sapiens, UniProt P00734).
T1 construct: Human α-thrombin; purchased Sigma Chemical Co. or Hematologic Technologies
Put plainly: Test A: Determination of Thrombin Inhibition with a Chromogenic, Robotic Assay. It counts as biochemical. The following applies: chromogenic substrate S-2366 0.30 mmol/L, α-thrombin 0.020 NIHU/mL, 40 minutes incubation at 37° C. On the procedure: Determination of Thrombin Inhibition with a Chromogenic, Robotic Assay
The thrombin inhibitor potency is measured with a chromogenic substrate method, in a Plato 3300 robotic microplate processor (Rosys AG, CH-8634 Hombrechtikon, Switzerland), using 96-well, half volume microtitre plates (Costar, Cambridge, Mass., USA; Cat No 3690). Stock solutions of test substance in DMSO (72 μL), 0.1-1 mmol/L, are diluted serially 1:3 (24+48 μL) with DMSO to obtain ten different concentrations, which are analysed as samples in the assay. 2 μL of test sample is diluted with 124 μL assay buffer, 12 μL of chromogenic substrate solution (S-2366, Chromogenix, Mölndal, Sweden) in assay buffer and finally 12 μL of α-thrombin solution (Human α-thrombin, Sigma Chemical Co. or Hematologic Technologies) in assay buffer, are added, and the samples mixed. The final assay concentrations are: test substance 0.00068-133 μmol/L, S-2366 0.30 mmol/L, α-thrombin 0.020 NIHU/mL. The linear absorbance increment during 40 minutes incubation at 37° C. is used for calculation of percentage inhibition for the test samples, as compared to blanks without inhibitor.
Turning to `N[C@@H](C(=O)N1[C@H](C(=O)NCc2cc(Cl)ccc2-n2cnnn2)C[C@@H]2C[C@@H]21)c1ccc(O)cc1` [Example 48, (1S,3S,5S)-2-[(R)-2-Amino-2-(4-hydroxy-phenyl)-acetyl]-2-aza-bicyclo[3.1.0]hexane-3-carboxylic acid 5-chloro-2-tetrazol-1-yl-benzylamide hydrochloride], the 50% inhibitory concentration (IC50) amounted to 22 nM. As for `O=C(NCc1cc(Cl)ccc1-n1cnnn1)[C@@H]1[C@H]2C[C@H]2CN1C(=O)[C@H]1COCCN1` [Example 75, (1S,2S,5R)-3-((R)-Morpholine-3-carbonyl)-3-aza-bicyclo[3.1.0]hexane-2-carboxylic acid 5-chloro-2-tetrazol-1-yl-benzylamide acetate], inhibition was half-maximal at 650 nM (IC50). With `O=C([C@H](O)CCc1ccccc1)N1CC2CC1(C(=O)NCc1cc(Cl)ccc1-n1cnnn1)C2` [Example 65, 2-((R)-2-Hydroxy-4-phenyl-butyryl)-2-aza-bicyclo[2.1.1]hexane-1-carboxylic acid 5-chloro-2-tetrazol-1-yl-benzylamide] the figure was 170 nM; with `CC(C)(C1CC1)C(O)C(=O)N1C[C@@H]2C[C@@H]2[C@H]1C(=O)NCc1cc(Cl)ccc1-n1cnnn1` (stereo partly drawn) [Example 62, (1S,2S,5R)-3-(3-Cyclopropyl-2-hydroxy-3-methyl-butyryl)-3-aza-bicyclo[3.1.0]hexane-2-carboxylic acid 5-chloro-2-tetrazol-1-yl-benzylamide], 2 nM. With `O=C(NCc1cc(Cl)ccc1-n1cnnn1)[C@@H]1C[C@@H]2C[C@@H]2N1C(=O)C1(O)CCCc2ncccc21` (stereo partly drawn) [Example 77, (1S,3S,5S)-2-(5-Hydroxy-5,6,7,8-tetrahydro-quinoline-5-carbonyl)-2-aza-bicyclo[3.1.0]hexane-3-carboxylic acid 5-chloro-2-tetrazol-1-yl-benzylamide] the figure was 9 nM; with `CC(C)(C1CC1)C(O)C(=O)N1C[C@H]2C[C@H]2[C@H]1C(=O)NCc1cc(Cl)ccc1-n1cnnn1` (stereo partly drawn) [Example 61, (1R,2S,5S)-3-(3-Cyclopropyl-2-hydroxy-3-methyl-butyryl)-3-aza-bicyclo[3.1.0]hexane-2-carboxylic acid 5-chloro-2-tetrazol-1-yl-benzylamide], 15 nM; with `NC(C(=O)N1C[C@@H]2C[C@@H]2[C@H]1C(=O)NCc1cc(Cl)ccc1-n1cnnn1)c1ccccc1F` (stereo partly drawn) [Example 74, (1S,2S,5R)-3-[2-Amino-2-(2-fluoro-phenyl)-acetyl]-3-aza-bicyclo[3.1.0]hexane-2-carboxylic acid 5-chloro-2-tetrazol-1-yl-benzylamide], 29 nM.

`O=C(NCc1cc(Cl)ccc1-n1cnnn1)[C@@H]1C[C@@H]2C[C@@H]2N1C(=O)[C@H](O)c1cc(Cl)cc(OC(F)F)c1` [Example 37, (1S,3S,5S)-2-[(R)-2-(3-Chloro-5-difluoromethoxy-phenyl)-2-hydroxy-acetyl]-2-aza-bicyclo[3.1.0]hexane-3-carboxylic acid 5-chloro-2-tetrazol-1-yl-benzylamide]: the IC50 is 4 nM. This IC50 lies about 7.2-fold lower than the previous one.

As for `CC(C)(C)OC[C@@H](O)C(=O)N1CC2CC1(C(=O)NCc1cc(Cl)ccc1-n1cnnn1)C2` [Example 66, 2-((R)-3-tert-Butoxy-2-hydroxy-propionyl)-2-aza-bicyclo[2.1.1]hexane-1-carboxylic acid 5-chloro-2-tetrazol-1-yl-benzylamide], the IC50 is 67 nM. This IC50 is about 17-fold higher than that of the compound before.

The compound `O=C(N1CC2CC1(C(=O)NCc1cc(Cl)ccc1-n1cnnn1)C2)C1(O)CCOc2ccccc21` (racemic) [Example 64, (rac)-2-(4-Hydroxy-1-benzopyran-4-carbonyl)-2-aza-bicyclo[2.1.1]hexane-1-carboxylic acid 5-chloro-2-tetrazol-1-yl-benzylamide] displayed a half-inhibitory concentration (IC50) of 40 nM. With `O=C([C@H](O)c1ccccc1)N1CC2CC1(C(=O)NCc1cc(Cl)ccc1-n1cnnn1)C2` [Example 30, 2-((R)-2-Hydroxy-2-phenyl-acetyl)-2-aza-bicyclo[2.1.1]hexane-1-carboxylic acid 5-chloro-2-tetrazol-1-yl-benzylamide] the figure was 47 nM. With `O=C([C@H](O)C1CCCCC1)N1CC[C@@H]2C[C@@]21C(=O)NCc1cc(Cl)ccc1-n1cnnn1` [Example 27, (1S,5R)-2-((R)-2-Cyclohexyl-2-hydroxy-acetyl)-2-aza-bicyclo[3.1.0]hexane-1-carboxylic acid-5-chloro-2-tetrazol-1-yl-benzylamide] the figure was 7 nM. The figure for `N[C@H](CO)C(=O)N1[C@H](C(=O)NCc2cc(Cl)ccc2-n2cnnn2)C[C@@H]2C[C@@H]21` [Example 49, (1S,3S,5S)-2-((R)-2-Amino-3-hydroxy-propionyl)-2-aza-bicyclo[3.1.0]hexane-3-carboxylic acid 5-chloro-2-tetrazol-1-yl-benzylamide hydrochloride] is 450 nM.

Turning to `CC(C)(C)OC[C@@H](N)C(=O)N1C[C@@H]2C[C@@H]2[C@H]1C(=O)NCc1cc(Cl)ccc1-n1cnnn1` [Example 54, (1S,2S,5R)-3-((R)-2-Amino-3-tert-butoxy-propionyl)-3-aza-bicyclo[3.1.0]hexane-2-carboxylic acid 5-chloro-2-tetrazol-1-yl-benzylamide acetate], the IC50 is 6 nM. The figure for `CC(C)(C)OC[C@@H](N)C(=O)N1[C@H](C(=O)NCc2cc(Cl)ccc2-n2cnnn2)C[C@@H]2C[C@@H]21` [Example 53, (1S,3S,5S)-2-((R)-2-Amino-3-tert-butoxy-propionyl)-2-aza-bicyclo[3.1.0]hexane-3-carboxylic acid 5-chloro-2-tetrazol-1-yl-benzylamide acetate] is 5 nM; for `O=C(NCc1cc(Cl)ccc1-n1cnnn1)[C@@H]1[C@H]2C[C@H]2CN1C(=O)[C@H](O)c1cc(Cl)cc(OC(F)F)c1` [Example 36, (1S,2S,5R)-3-[2-((R)-3-Chloro-5-difluoromethoxy-phenyl)-2-hydroxy-acetyl]-3-aza-bicyclo[3.1.0]hexane-2-carboxylic acid 5-chloro-2-tetrazol-1-yl-benzylamide] it is 9 nM. `CC(C)(C)C[C@@H](N)C(=O)N1C[C@@H]2C[C@@H]2[C@H]1C(=O)NCc1cc(Cl)ccc1-n1cnnn1` [Example 18, (1S,2S,5R)-3-((R)-2-Amino-4,4-dimethyl-pentanoyl)-3-aza-bicyclo[3.1.0]hexane-2-carboxylic acid 5-chloro-2-tetrazol-1-yl-benzylamide hydrochloride] showed a half-inhibitory concentration (IC50) of 1 nM. `O=C(NCc1cc(Cl)ccc1-n1cnnn1)[C@@H]1[C@H]2C[C@H]2CN1C(=O)[C@H](O)c1cccc(Cl)c1` [Example 57, (1S,2S,5R)-3-[(R)-2-(3-Chloro-phenyl)-2-hydroxy-acetyl]-3-aza-bicyclo[3.1.0]hexane-2-carboxylic acid 5-chloro-2-tetrazol-1-yl-benzylamide] returned a 50% inhibitory concentration (IC50) of 3 nM.

`O=C(NCc1cc(Cl)ccc1-n1cnnn1)[C@@H]1[C@H]2C[C@H]2CN1C(=O)C(O)Cn1cncn1` (stereo partly drawn) [Example 52, (1S,2S,5R)-3-(2-Hydroxy-3-1,2,4-triazol-1-yl-propionyl)-3-aza-bicyclo[3.1.0]hexane-2-carboxylic acid 5-chloro-2-tetrazol-1-yl-benzylamide]: the half-inhibitory concentration (IC50) turned out to be 570 nM. The figure for `N[C@H](CC1CCCCC1)C(=O)N1CC2CC1(C(=O)NCc1cc(Cl)ccc1-n1cnnn1)C2` [Example 68, 2-((R)-2-Amino-3-cyclohexyl-propionyl)-2-aza-bicyclo[2.1.1]hexane-1-carboxylic acid 5-chloro-2-tetrazol-1-yl-benzylamide hydrochloride] is 4 nM.
